The assay has as its target Acetylcholinesterase (Homo sapiens, UniProt P22303). Briefly: Inhibition of human recombinant AChE.

Chain of Acetylcholinesterase (P22303 whole entry): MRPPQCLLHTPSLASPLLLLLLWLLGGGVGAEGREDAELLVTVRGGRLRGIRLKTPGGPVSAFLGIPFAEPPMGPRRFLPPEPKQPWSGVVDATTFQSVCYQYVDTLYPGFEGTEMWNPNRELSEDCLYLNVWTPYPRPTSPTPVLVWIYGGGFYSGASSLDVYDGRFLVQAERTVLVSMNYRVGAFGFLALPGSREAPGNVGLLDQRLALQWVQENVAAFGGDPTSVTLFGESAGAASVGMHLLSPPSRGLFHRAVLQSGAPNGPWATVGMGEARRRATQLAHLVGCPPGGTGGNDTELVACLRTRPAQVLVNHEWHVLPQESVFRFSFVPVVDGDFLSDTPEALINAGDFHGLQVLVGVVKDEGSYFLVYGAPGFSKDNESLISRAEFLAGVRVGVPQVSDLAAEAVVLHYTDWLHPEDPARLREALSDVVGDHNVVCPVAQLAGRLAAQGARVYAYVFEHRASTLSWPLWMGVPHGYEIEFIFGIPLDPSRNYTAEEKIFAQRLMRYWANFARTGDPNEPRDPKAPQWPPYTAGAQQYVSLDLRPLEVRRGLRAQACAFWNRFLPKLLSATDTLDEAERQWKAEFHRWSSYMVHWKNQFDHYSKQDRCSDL

What is called IC50 is the midpoint of a concentration-inhibition curve. On to `COc1ccc2c3c1O[C@H]1C[C@@H](O)C=C[C@@]31CCN(CCCCCCCCN1C(=O)c3ccccc3S1(=O)=O)C2`, for which the IC50 is 50 nM.

For the origin of these results see ChEMBL document CHEMBL1156800, “Probing Torpedo californica acetylcholinesterase catalytic gorge with two novel bis-functional galanthamine derivatives” (J Med Chem, 2010).
